Data from paper PMC9917550, “Discovery of Novel Thiazolidinedione-Derivatives with Multi-Modal Antidiabetic Activities In Vitro and In Silico” (International Journal of Molecular Sciences, 2023).

Columns and labels:
[1] = biological target: T1, α-amylase (Sus scrofa, UniProt P00690); experiment: α-amylase inhibition assay; format: biochemical; details: 10-50 µg/mL, versus control, p < 0.05
T1 sequence (P00690 16-511): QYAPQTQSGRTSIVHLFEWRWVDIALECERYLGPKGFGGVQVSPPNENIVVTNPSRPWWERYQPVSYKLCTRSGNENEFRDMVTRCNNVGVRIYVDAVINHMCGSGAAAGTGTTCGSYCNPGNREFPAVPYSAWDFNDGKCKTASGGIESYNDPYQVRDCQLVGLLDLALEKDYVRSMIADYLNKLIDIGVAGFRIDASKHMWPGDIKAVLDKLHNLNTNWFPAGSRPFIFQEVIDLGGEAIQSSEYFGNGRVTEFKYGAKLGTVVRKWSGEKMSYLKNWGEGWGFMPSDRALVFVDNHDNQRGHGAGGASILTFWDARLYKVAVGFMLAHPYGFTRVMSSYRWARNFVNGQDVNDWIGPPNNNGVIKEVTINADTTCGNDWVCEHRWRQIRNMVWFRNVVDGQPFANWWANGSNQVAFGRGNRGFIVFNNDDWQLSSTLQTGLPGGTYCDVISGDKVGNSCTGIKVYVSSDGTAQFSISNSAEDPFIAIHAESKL
Protocol: The α-amylase inhibitory activity was determined using the method described by the Worthington Enzyme Manual with slight modifications. The TZD derivatives were assayed at 10, 20, 30, 40, and 50 µg/mL. […] The sodium phosphate buffer was used as a blank. The inhibitory activity was calculated according to the equation:
Inhibition (%) = ((Acontrol − Asample)/Acontrol) × 100%, where Acontrol was the absorbance of the control (without the inhibitor); Asample was the absorbance in the presence of TZD derivatives.

[2] = biological target: T2, α-glucosidase (Saccharomyces cerevisiae, UniProt P53341); format: biochemical
[3] = biological target: aldose reductase (Homo sapiens, UniProt P15121); experiment: Aldose reductase inhibition assay; format: biochemical; details: for aldose reductase inhibitory activity (in words): 10-50 µg/mL, versus control, p < 0.05; for IC50: read-out: IC50 for the Inhibitory Activity Assays, AR (converted)
Protocol: The aldose reductase (AR) inhibition assay was performed according to the method described by Kazeem et al. with minor modifications. All the TZD derivatives were assayed at 10, 20, 30, 40, and 50 µg/mL. […] The absolute standard contained all the reagents used except for the inhibitor compounds. The aldose reductase inhibition activity was calculated as a percentage inhibition from:
(§1) % Inhibition = [(∆Abscontrol − ∆Abssample)/∆Abscontrol] × 100%, where ∆Abs is the change is absorbance.

[4] = biological target: T3, protein tyrosine phosphatase-1B (PTP-1B) (Homo sapiens, UniProt P18031); experiment: Protein tyrosine phosphatase-1B inhibition assay; format: biochemical; details: for PTP-1B inhibitory activity (in words): 10-50 µg/mL, versus control; for IC50: read-out: IC50 for the Inhibitory Activity Assays, PTP-1B (converted)
T3 sequence (P18031 1-435): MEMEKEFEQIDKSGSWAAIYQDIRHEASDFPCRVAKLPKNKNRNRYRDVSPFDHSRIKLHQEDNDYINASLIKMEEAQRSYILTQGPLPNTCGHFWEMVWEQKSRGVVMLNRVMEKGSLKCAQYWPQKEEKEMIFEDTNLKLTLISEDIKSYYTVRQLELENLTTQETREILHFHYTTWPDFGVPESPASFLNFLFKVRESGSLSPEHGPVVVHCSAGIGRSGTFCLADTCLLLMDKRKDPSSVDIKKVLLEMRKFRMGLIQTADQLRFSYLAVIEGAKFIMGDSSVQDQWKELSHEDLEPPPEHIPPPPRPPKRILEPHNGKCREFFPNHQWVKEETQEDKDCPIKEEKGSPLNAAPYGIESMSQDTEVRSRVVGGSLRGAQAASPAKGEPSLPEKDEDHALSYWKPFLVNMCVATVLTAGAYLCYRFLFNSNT
Protocol: The protein tyrosine phosphatase-1B (PTP-1B) inhibition assay was performed according to the method described by Song et al. with some modifications. […] The absolute control contained all the reagents used except the inhibitor compounds. The inhibition activity was calculated using:
as §1

[5] = biological target: T4, DPP-4 (Homo sapiens, UniProt P27487); experiment: Dipeptidyl peptidase-4 inhibition assay (DPP-4 Inhibitor Screening Kit); format: biochemical; details: for DPP-4 inhibitory activity (in words): 10-50 µg/mL, versus control; for IC50: read-out: IC50 for the Inhibitory Activity Assays, DPP-4 (converted); for DPP-4 inhibition: 10, 20, 30, 40 and 50 µg/mL
T4 construct: purchased Sigma-Aldrich MAK203
Protocol: This assay was performed according to the DPP-4 Inhibitor Screening Kit (catalogue number: MAK203) product information (Sigma-Aldrich.com) with minor modifications to the volumes to suit the 96-well plate assay.

[6] = tested on: liver cells (HEP-G2); experiment: Glucose uptake in liver cells; format: cell-based; details: 25, 50 and 100 µg/mL, 24 h, versus control
Protocol: HEPG-2 liver cells were cultured in MEME supplemented with pen/strep (1%) and FBS (10%) in a […] under tissue culture conditions. Upon confluency (80%), cells were trypsinized and seeded into the 96-well plates. Upon confluency, the cell preparations were exposed to different concentrations (25, 50, and 100 µg/mL) of TZDDs, and a media glucose reading was taken before incubation (time = 0). Thereafter, the plates containing cells and treatments were incubated for 24 h under tissue culture conditions. The non-treated cells and insulin treated cells served as absolute and positive controls, respectively. After a 24 h incubation, the medium glucose was taken using a glucometer. The percentage glucose uptake was calculated as follows:
Glucose uptake (%) = (T24/T0) × 100

[7] = biological target: T2, α-glucosidase; experiment: Mode of inhibition of α-glucosidase (Michaelis-Menten, Lineweaver-Burk); format: biochemical; details: substrate pNPG
Protocol: The Ki values were calculated with GraphPad Prism 9.2.0. (332) by plotting the reciprocal of maximum velocity (1/Vmax) (y-axis) against the derivative concentrations (x-axis). The types of inhibition parameters were all calculated with GraphPad Prism 9.2.0. Briefly, 30 µL of α-glucosidase enzyme (0.5 IU/mL) was dissolved in the 0.02 M phosphate buffer (pH 6.9), and then was pre-incubated at 37 °C with the above-mentioned derivative (50 µL) in a 96-well plate, for 5 min. In sequence, pNPG (0.125, 0.250, 0.500, 0.750, 1.000, 1.500, 2.000, 2.500, and 5.000 mM) was added and incubated in the reaction mixture at 37 °C for 30 min.

T4 sequence (P27487 whole entry, species assumed): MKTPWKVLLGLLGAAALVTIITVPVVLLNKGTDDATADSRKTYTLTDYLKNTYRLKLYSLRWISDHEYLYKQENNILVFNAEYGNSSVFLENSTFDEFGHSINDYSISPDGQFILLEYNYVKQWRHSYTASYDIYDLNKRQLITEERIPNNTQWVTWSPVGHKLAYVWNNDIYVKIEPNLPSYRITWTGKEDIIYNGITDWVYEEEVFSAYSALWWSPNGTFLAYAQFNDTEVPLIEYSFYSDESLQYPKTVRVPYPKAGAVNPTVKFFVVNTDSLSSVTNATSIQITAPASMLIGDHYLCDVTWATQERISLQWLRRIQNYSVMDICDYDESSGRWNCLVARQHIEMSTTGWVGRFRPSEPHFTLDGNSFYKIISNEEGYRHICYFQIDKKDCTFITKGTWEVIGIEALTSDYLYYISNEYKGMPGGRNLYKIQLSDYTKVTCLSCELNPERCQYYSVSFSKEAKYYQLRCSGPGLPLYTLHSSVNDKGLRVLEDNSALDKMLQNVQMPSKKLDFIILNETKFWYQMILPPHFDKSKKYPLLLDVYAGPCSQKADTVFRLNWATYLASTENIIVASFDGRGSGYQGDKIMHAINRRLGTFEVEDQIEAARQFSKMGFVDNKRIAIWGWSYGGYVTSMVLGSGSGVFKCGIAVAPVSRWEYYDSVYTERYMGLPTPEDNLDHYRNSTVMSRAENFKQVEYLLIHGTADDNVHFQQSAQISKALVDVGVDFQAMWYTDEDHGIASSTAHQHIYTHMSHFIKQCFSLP
T2 sequence (P53341 whole entry): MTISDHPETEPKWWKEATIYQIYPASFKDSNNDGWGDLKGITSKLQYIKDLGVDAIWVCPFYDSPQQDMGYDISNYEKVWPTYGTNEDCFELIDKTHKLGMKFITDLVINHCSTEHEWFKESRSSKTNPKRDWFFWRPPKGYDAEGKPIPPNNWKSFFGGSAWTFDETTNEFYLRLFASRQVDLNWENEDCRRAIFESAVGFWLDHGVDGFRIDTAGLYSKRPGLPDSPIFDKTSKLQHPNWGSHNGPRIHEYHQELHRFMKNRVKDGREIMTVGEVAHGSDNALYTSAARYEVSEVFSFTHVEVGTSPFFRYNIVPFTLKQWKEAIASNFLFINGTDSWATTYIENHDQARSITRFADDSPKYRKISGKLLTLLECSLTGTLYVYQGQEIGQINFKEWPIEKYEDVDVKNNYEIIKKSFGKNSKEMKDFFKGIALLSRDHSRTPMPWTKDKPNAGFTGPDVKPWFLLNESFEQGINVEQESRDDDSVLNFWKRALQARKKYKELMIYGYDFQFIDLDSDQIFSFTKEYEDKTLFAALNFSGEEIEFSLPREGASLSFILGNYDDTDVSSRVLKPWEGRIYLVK

Molecule | α-amylase inhibitory activity (in words) [1] | α-glucosidase inhibitory activity (in words) [2] | aldose reductase inhibitory activity (in words) [3] | IC50 [3] [µM] | IC50 for the Inhibitory Activity Assays, PTP-1B [4] | PTP-1B inhibitory activity (in words) [4] | DPP-4 inhibitory activity (in words) [5] | IC50 [5] [µM] | IC50 [4] [µM] | DPP-4 inhibition [5] [%] | Effect on glucose uptake [6] | Vmax ([7]; TZDD3 at 60 µg/mL) | Vmax ([7]; TZDD3 at 120 µg/mL)
C[C@H]1O[C@H](O[C@H]2[C@H](O)[C@@H](O)[C@@H](O[C@H]3[C@H](O)[C@@H](O)C(O)O[C@@H]3CO)O[C@@H]2CO)[C@H](O)[C@@H](O)[C@@H]1N[C@H]1C=C(CO)[C@@H](O)[C@H](O)[C@H]1O (stereo partly drawn) [Acarbose, reference compound] | significant (p < 0.05) inhibitory activity | significant (p < 0.05) inhibitory activity | – | – | – | – | – | – | – | – | – | – | –
O=c1c(O)c(-c2ccc(O)c(O)c2)oc2cc(O)cc(O)c12 [Quercetin, reference compound] | – | – | significant (p < 0.05) inhibitory activity | – | – | – | – | – | – | – | – | – | –
COc1cc(OC)c(/C=C2/SC(=O)N(CC(=O)N3CCN(c4ccccc4)CC3)C2=O)c(OC)c1 [TZDD1, (E)-5-(2,4,6-trimethoxybenzylidene)-3-(2-oxo-2-(4-phenylpiperazin-1-yl)ethyl)thiazolidine-2,4-dione] | showed inhibitory activity | – | concentration-dependent inhibitory activity | 55.3 | unstable | weak inhibitory activity | very weak inhibitory activity | 147 | – | – | – | – | –
Cc1cc(/C=C2\SC(=O)N(CC(=O)N3CCCC3)C2=O)c(C)n1-c1ccccc1 [TZDD2, (Z)-5-((2,5-Dimethyl-1phenyl-1H-pyrrol-3-yl)methylene)-3-(2-oxo-2-(pyrrolidin-1-yl)ethyl)thiazolidine-2,4-dione] | showed inhibitory activity | – | – | 201 | – | weak inhibitory activity | relatively higher activity | 78 | 334 | ≥ 20 | increase glucose uptake | – | –
Cc1cc(/C=C2\SC(=O)N(CC(=O)O)C2=O)c(C)n1-c1ccccc1 [TZDD3, (Z)-2-(5-((2,5-Dimethyl-1-phenyl-1H-pyrrol-3-yl)methylene)-2,4-dioxothiazolidin-3-yl)acetic Acid] | concentration-dependent inhibitory activity | – | decreasing inhibition activity | 161 | unstable | – | very weak inhibitory activity | 213 | – | – | – | 59.43 | 32.76
Cc1cc(/C=C2/S/C(=N\c3ccccc3)NC2=O)c(C)n1-c1ccccc1 [TZDD4, (2Z,5E)-5-((2,5-dimethyl-1-phenyl-1H-pyrrol-3-yl)methylene)-2-(phenylimino)thiazolidin-4-one] | showed inhibitory activity | – | – | 98.5 | – | weak inhibitory activity | – | 192 | 693 | ≥ 20 | – | – | –
insulin | – | – | – | – | – | – | – | – | – | – | enhanced glucose uptake | – | –
